Results taken from patent US20210045385A1, “PYRIDAZINONE-SUBSTITUTED KETOXIMES AS HERBICIDES” (FMC Corporation, priority 2018, published 2021).

Experiments:
Format in all cases: in vivo
[1] = system: Italian ryegrass (Lolium mutiflorum); assay: Test C preemergence, visual plant response rating
Outline: (§1)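 Seeds sown in a loam–sand blend got a directed preemergence soil spray; postemergence plants (2–10 cm, one- to two-leaf stage) were sprayed with compound in a non-phytotoxic solvent plus surfactant. Injury was scored visually against untreated controls after about 10 d in a greenhouse on a 0–100 scale (100 = complete control).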

[2] = system: barnyardgrass (Echinochloa crus-galli); assay: Test C preemergence, visual plant response rating
Outline: as §1

[3] = system: foxtail, giant (giant foxtail, Setaria faberi); assay: Test C preemergence, visual plant response rating
Outline: as §1

kochia (Bassia scoparia) [4] = assay: Test C preemergence, visual plant response rating
Outline: as §1

[5] = system: pigweed (Amaranthus retroflexus); assay: Test C preemergence, visual plant response rating
Outline: as §1

[6] = system: ragweed (common ragweed, Ambrosia artemisiifolia); assay: Test C preemergence, visual plant response rating
Outline: as §1

[7] = system: Italian ryegrass (Lolium mutiflorum); assay: Test C postemergence, visual plant response rating
Outline: as §1

[8] = system: barnyardgrass (Echinochloa crus-galli); assay: Test C postemergence, visual plant response rating
Outline: as §1

[9] = system: blackgrass (Alopecurus myosuroides); assay: Test C postemergence, visual plant response rating
Outline: as §1

corn (Zea mays) = assay: Test C postemergence, visual plant response rating
Outline: as §1

[10] = system: foxtail, giant (giant foxtail, Setaria faberi); assay: Test C postemergence, visual plant response rating
Outline: as §1

[11] = system: galium (catchweed bedstraw, Galium aparine); assay: Test C postemergence, visual plant response rating
Outline: as §1

kochia (Bassia scoparia) [12] = assay: Test C postemergence, visual plant response rating
Outline: as §1

[13] = system: pigweed (Amaranthus retroflexus); assay: Test C postemergence, visual plant response rating
Outline: as §1

[14] = system: ragweed (common ragweed, Ambrosia artemisiifolia); assay: Test C postemergence, visual plant response rating
Outline: as §1

[15] = system: wheat (Triticum aestivum); assay: Test C postemergence, visual plant response rating
Outline: as §1

[16] = system: barnyardgrass (Echinochloa crus-galli); assay: Test D flooded paddy test, visual plant response rating; settings: 250 g ai/ha, scale 0 to 100 (0 no effect, 100 complete control), 13 to 15 d
Outline: (§2)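 Plants grown to the 2-leaf stage; pots flooded to 3 cm above soil and compound applied directly into paddy water, depth held throughout. Kept in greenhouse 13 to 15 d, then rated visually against untreated controls on a 0–100 scale (0 no effect, 100 complete control).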

[17] = system: duck salad (Heteranthera limosa); assay: as above; settings: 250 g ai/ha, scale 0 to 100 (0 no effect, 100 complete control), 13 to 15 d
Outline: as §2

rice (Oryza sativa) = assay: as above; settings: 250 g ai/ha, scale 0 to 100 (0 no effect, 100 complete control), 13 to 15 d
Outline: as §2

[18] = system: sedge umbrella (small-flower umbrella sedge, Cyperus difformis); assay: as above; settings: 250 g ai/ha, scale 0 to 100 (0 no effect, 100 complete control), 13 to 15 d
Outline: as §2

[19] = Test C, 31 g ai/ha, 0 is no effect, 100 is complete control
[20] = Test C, postemergence, 125 g ai/ha
[21] = Test C, postemergence, 31 g ai/ha
[22] = Test C, 125 g ai/ha, 0 is no effect, 100 is complete control

| SMILES | Ryegrass, Italian plant response rating (0 to 100 scale) [1, 19] | Barnyardgrass plant response rating (0 to 100 scale) [2, 19] | Foxtail, Giant plant response rating (0 to 100 scale) [3, 19] | Kochia plant response rating (0 to 100 scale) (kochia (Bassia scoparia) [4]; [19]) | Pigweed plant response rating (0 to 100 scale) [5, 19] | Ragweed plant response rating (0 to 100 scale) [6, 19] | Ryegrass, Italian plant response rating (0 to 100 scale) ([7]; Postemergence, 31 g ai/ha) | Ryegrass, Italian plant response rating (0 to 100 scale) [7, 20] | Barnyardgrass plant response rating (0 to 100 scale) [8, 20] | Blackgrass plant response rating (0 to 100 scale) [9, 20] | Corn plant response rating (0 to 100 scale) (corn (Zea mays); [20]) | Foxtail, Giant plant response rating (0 to 100 scale) [10, 20] | Galium plant response rating (0 to 100 scale) [11, 20] | Kochia plant response rating (0 to 100 scale) (kochia (Bassia scoparia) [12]; [20]) | Pigweed plant response rating (0 to 100 scale) ([13]; Postemergence, 31 g ai/ha) | Pigweed plant response rating (0 to 100 scale) [13, 20] | Ragweed plant response rating (0 to 100 scale) ([14]; Postemergence, 31 g ai/ha) | Ragweed plant response rating (0 to 100 scale) [14, 20] | Wheat plant response rating (0 to 100 scale) ([15]; Postemergence, 31 g ai/ha) | Wheat plant response rating (0 to 100 scale) [15, 20] | further results |
| --- | --- | --- | --- | --- | --- | --- | --- | --- | --- | --- | --- | --- | --- | --- | --- | --- | --- | --- | --- | --- | --- |
| CON=C(c1cc(C)cc(Cl)c1)c1c(O)c(C)nn(C)c1=O [Compound 174] | 80 | 70 | 70 | 20 | 20 | 60 | 60 | 100 | 90 | 40 | 20 | 90 | 100 | 90 | 60 | 80 | 80 | 90 | 0 | 0 | Ryegrass, Italian plant response rating (0 to 100 scale) ([1]; 125 g ai/ha): 90; Barnyardgrass plant response rating (0 to 100 scale) ([2]; 125 g ai/ha): 90; Foxtail, Giant plant response rating (0 to 100 scale) ([3]; 125 g ai/ha): 90; Kochia plant response rating (0 to 100 scale) (kochia (Bassia scoparia) [4]; 125 g ai/ha): 80; Pigweed plant response rating (0 to 100 scale) ([5]; 125 g ai/ha): 70; Ragweed plant response rating (0 to 100 scale) ([6]; 125 g ai/ha): 90; Barnyardgrass plant response rating (0 to 100 scale) ([8]; Postemergence, 31 g ai/ha): 60; Blackgrass plant response rating (0 to 100 scale) ([9]; Postemergence, 31 g ai/ha): 30; Corn plant response rating (0 to 100 scale) (corn (Zea mays); Postemergence, 31 g ai/ha): 10; Foxtail, Giant plant response rating (0 to 100 scale) ([10]; Postemergence, 31 g ai/ha): 50; Galium plant response rating (0 to 100 scale) ([11]; Postemergence, 31 g ai/ha): 100; Kochia plant response rating (0 to 100 scale) (kochia (Bassia scoparia) [12]; Postemergence, 31 g ai/ha): 70; Plant response rating, Barnyardgrass (Flood) [16]: 0; Plant response rating, Ducksalad (Flood) [17]: 0; Plant response rating, Rice (Flood) (rice (Oryza sativa)): 0; Plant response rating, Sedge, Umbrella (Flood) [18]: 0 |
| CO/N=C(\c1cc(F)cc(F)c1C)c1c(O)c(C)nn(C)c1=O [Compound 152] | 20 | 0 | 0 | 0 | 0 | 20 | 20 | 80 | 20 | 10 | 0 | 50 | 80 | 80 | 60 | 70 | 40 | 90 | 0 | 0 | Ryegrass, Italian plant response rating (0 to 100 scale) ([1]; 125 g ai/ha): 80; Barnyardgrass plant response rating (0 to 100 scale) ([2]; 125 g ai/ha): 10; Foxtail, Giant plant response rating (0 to 100 scale) ([3]; 125 g ai/ha): 20; Kochia plant response rating (0 to 100 scale) (kochia (Bassia scoparia) [4]; 125 g ai/ha): 10; Pigweed plant response rating (0 to 100 scale) ([5]; 125 g ai/ha): 30; Ragweed plant response rating (0 to 100 scale) ([6]; 125 g ai/ha): 40; Barnyardgrass plant response rating (0 to 100 scale) [8, 21]: 0; Blackgrass plant response rating (0 to 100 scale) [9, 21]: 0; Corn plant response rating (0 to 100 scale) (corn (Zea mays); [21]): 0; Foxtail, Giant plant response rating (0 to 100 scale) [10, 21]: 10; Galium plant response rating (0 to 100 scale) [11, 21]: 80; Kochia plant response rating (0 to 100 scale) (kochia (Bassia scoparia) [12]; [21]): 50; Plant response rating, Barnyardgrass (Flood) [16]: 0; Plant response rating, Ducksalad (Flood) [17]: 0; Plant response rating, Rice (Flood) (rice (Oryza sativa)): 0; Plant response rating, Sedge, Umbrella (Flood) [18]: 0 |
| CCO/N=C(/c1c(O)c(Cl)nn(C)c1=O)c1ccc(F)c2ccccc12 [Compound 211] | 30 | 50 | 70 | 0 | 70 | 40 | 30 | 80 | 70 | 30 | 20 | 90 | 100 | 90 | 70 | 100 | 80 | 80 | 0 | 40 | Ryegrass, Italian plant response rating (0 to 100 scale) [1, 22]: 80; Barnyardgrass plant response rating (0 to 100 scale) [2, 22]: 90; Foxtail, Giant plant response rating (0 to 100 scale) [3, 22]: 90; Kochia plant response rating (0 to 100 scale) (kochia (Bassia scoparia) [4]; [22]): 60; Pigweed plant response rating (0 to 100 scale) [5, 22]: 90; Ragweed plant response rating (0 to 100 scale) [6, 22]: 100; Barnyardgrass plant response rating (0 to 100 scale) ([8]; Postemergence, 31 g ai/ha): 30; Blackgrass plant response rating (0 to 100 scale) ([9]; Postemergence, 31 g ai/ha): 30; Corn plant response rating (0 to 100 scale) (corn (Zea mays); Postemergence, 31 g ai/ha): 30; Foxtail, Giant plant response rating (0 to 100 scale) ([10]; Postemergence, 31 g ai/ha): 60; Galium plant response rating (0 to 100 scale) ([11]; Postemergence, 31 g ai/ha): 100; Kochia plant response rating (0 to 100 scale) (kochia (Bassia scoparia) [12]; Postemergence, 31 g ai/ha): 50; Plant response rating, Barnyardgrass (Flood) [16]: 0; Plant response rating, Ducksalad (Flood) [17]: 0; Plant response rating, Rice (Flood) (rice (Oryza sativa)): 0; Plant response rating, Sedge, Umbrella (Flood) [18]: 0 |
| CCO/N=C(\c1c(O)c(C)nn(C)c1=O)c1cccc2cc(Cl)ccc12 [Compound 273] | 0 | 40 | 80 | 0 | 90 | 20 | 10 | 60 | 80 | 90 | 30 | 100 | 100 | 60 | 90 | 100 | 90 | 100 | 0 | 0 | Ryegrass, Italian plant response rating (0 to 100 scale) [1, 22]: 40; Barnyardgrass plant response rating (0 to 100 scale) [2, 22]: 80; Foxtail, Giant plant response rating (0 to 100 scale) [3, 22]: 90; Kochia plant response rating (0 to 100 scale) (kochia (Bassia scoparia) [4]; [22]): 40; Pigweed plant response rating (0 to 100 scale) [5, 22]: 90; Ragweed plant response rating (0 to 100 scale) [6, 22]: 20; Barnyardgrass plant response rating (0 to 100 scale) ([8]; Postemergence, 31 g ai/ha): 40; Blackgrass plant response rating (0 to 100 scale) ([9]; Postemergence, 31 g ai/ha): 80; Corn plant response rating (0 to 100 scale) (corn (Zea mays); Postemergence, 31 g ai/ha): 0; Foxtail, Giant plant response rating (0 to 100 scale) ([10]; Postemergence, 31 g ai/ha): 100; Galium plant response rating (0 to 100 scale) ([11]; Postemergence, 31 g ai/ha): 100; Kochia plant response rating (0 to 100 scale) (kochia (Bassia scoparia) [12]; Postemergence, 31 g ai/ha): 40; Plant response rating, Barnyardgrass (Flood) [16]: 90; Plant response rating, Ducksalad (Flood) [17]: 95; Plant response rating, Rice (Flood) (rice (Oryza sativa)): 85; Plant response rating, Sedge, Umbrella (Flood) [18]: 95 |
